The target of data set [1] is T1, Receptor tyrosine-protein kinase erbB-2 (Homo sapiens, UniProt P04626). As to the kind of experiment: Binding affinity to HER2 in human BT-474 cells assessed as dissociation constant by measuring high affinity ligand binding site by LigandTracer technique. The format is cell-based.
The target in data set [2] is T1, Receptor tyrosine-protein kinase erbB-2. As to the kind of experiment: Binding affinity to HER2 in human BT474 cells assessed as dissociation constant by measuring low affinity ligand binding site by LigandTracer technique. The format is cell-based, BT-474.
Data set [3] in a line: Biodistribution in lung of BALB/c nu/nu mouse measured in organ after 1 hr. The settings on record: in vivo. It is filed as ADME, organism-based.
Data set [4] can be described thus: Biodistribution in liver of BALB/c nu/nu mouse measured in organ after 1 hr. The conditions noted are these: in vivo. It is filed as ADME, organism-based.
A short description of data set [5]: Biodistribution in spleen of BALB/c nu/nu mouse measured in organ after 1 hr. The settings on record: in vivo. It is filed as ADME, organism-based.
Data set [6] is described as follows: Biodistribution in stomach of BALB/c nu/nu mouse measured in organ after 1 hr. The settings on record: in vivo. It is filed as ADME, organism-based.
Data set [7] in a line: Biodistribution in pancreas of BALB/c nu/nu mouse measured in organ after 1 hr. The format is ADME, organism-based. The settings on record: in vivo.
Data set [8] can be described thus: Biodistribution in brain of BALB/c nu/nu mouse measured in organ after 1 hr. It is filed as ADME, organism-based. The conditions noted are these: in vivo.
Data set [9] is described as follows: Biodistribution in kidney of BALB/c nu/nu mouse measured in organ after 1 hr. It is filed as ADME, organism-based. The conditions noted are these: in vivo.
The nature of data set [10]: Biodistribution in muscle of BALB/c nu/nu mouse measured in organ after 1 hr. The format is ADME, organism-based. The conditions noted are these: in vivo.
A short description of data set [11]: Biodistribution in bone of BALB/c nu/nu mouse measured in organ after 1 hr. It is filed as ADME, organism-based, Bone element. The conditions noted are these: in vivo.
Data set [12] can be described thus: Biodistribution in Gastrointestinal tract of BALB/c nu/nu mouse measured in organ after 1 hr. It is filed as ADME, organism-based. The conditions noted are these: in vivo.
The nature of data set [13]: Biodistribution in Carcass of BALB/c nu/nu mouse measured in organ after 1 hr. It is filed as ADME, organism-based. The settings on record: in vivo.

Where a SMILES comes first, the peptide text is derived from it.

T1 sequence (P04626 whole entry): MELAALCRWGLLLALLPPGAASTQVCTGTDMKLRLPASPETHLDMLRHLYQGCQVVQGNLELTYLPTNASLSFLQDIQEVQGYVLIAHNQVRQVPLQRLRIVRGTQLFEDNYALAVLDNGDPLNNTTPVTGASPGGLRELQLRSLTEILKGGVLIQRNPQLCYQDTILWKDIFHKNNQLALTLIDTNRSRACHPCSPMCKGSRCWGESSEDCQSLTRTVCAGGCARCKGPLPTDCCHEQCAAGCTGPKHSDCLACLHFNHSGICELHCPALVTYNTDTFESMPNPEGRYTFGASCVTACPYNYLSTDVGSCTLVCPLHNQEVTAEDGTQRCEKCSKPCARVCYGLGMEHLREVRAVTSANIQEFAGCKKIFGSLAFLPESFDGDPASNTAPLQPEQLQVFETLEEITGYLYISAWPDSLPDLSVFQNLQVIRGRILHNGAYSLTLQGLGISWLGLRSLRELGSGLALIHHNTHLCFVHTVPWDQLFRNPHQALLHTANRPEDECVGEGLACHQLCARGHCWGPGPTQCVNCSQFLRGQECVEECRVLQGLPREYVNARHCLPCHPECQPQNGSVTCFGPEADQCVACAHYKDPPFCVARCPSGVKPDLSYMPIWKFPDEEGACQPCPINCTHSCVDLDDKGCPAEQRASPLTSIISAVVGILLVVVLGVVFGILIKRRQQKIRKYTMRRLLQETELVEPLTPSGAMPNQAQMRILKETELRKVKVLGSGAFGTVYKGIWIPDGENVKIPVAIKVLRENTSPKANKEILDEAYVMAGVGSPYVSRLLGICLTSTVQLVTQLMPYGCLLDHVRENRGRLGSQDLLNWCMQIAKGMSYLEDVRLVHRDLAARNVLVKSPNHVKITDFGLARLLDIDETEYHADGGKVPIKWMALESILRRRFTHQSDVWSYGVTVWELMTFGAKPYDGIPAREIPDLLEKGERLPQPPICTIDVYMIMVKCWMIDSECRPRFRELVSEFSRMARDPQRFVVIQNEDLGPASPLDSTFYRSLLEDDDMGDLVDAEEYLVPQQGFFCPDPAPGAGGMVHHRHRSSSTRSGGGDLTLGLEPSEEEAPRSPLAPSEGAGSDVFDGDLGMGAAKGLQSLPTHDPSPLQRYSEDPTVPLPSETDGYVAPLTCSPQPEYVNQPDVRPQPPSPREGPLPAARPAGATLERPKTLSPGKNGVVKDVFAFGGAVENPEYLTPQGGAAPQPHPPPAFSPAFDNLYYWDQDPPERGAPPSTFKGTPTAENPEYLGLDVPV

As usually defined, the Kd is the constant that tells how readily two partners part at equilibrium. Take `CC(C)[C@H](NC(=O)[C@H](C)NC(=O)[C@@H](NC(=O)[C@H](CC(N)=O)NC(=O)[C@@H](NC(=O)[C@H](CC(=O)O)NC(=O)[C@H](CCC(N)=O)NC(=O)CN(CCN(CCN(CC(=O)O)CC(=O)O)CC(=O)O)CC(=O)O)C(C)C)[C@@H](C)O)C(=O)N[C@@H](C)C(=O)N[C@@H](Cc1c[nH]c2ccccc12)C(N)=O` (HELM PEPTIDE1{[O=C(O)CN(CCN(CC(=O)O)CC(=O)O)CCN(CC(=O)O)CC(=O)[*:2]].Q.D.V.N.T.A.V.A.W.[am]}$$$$V2.0): the Kd came to 4.9 nM in [1] and 103 nM in [2]. Further, the Drug uptake in data set [3] was 0.06 %ID; in data set [4], 0.47 %ID; in data set [5], 0.02 %ID; in [6], 0.05 %ID; in [7] it was 0.01 %ID; in [8], 0 %ID. Besides, the Drug uptake worked out at 2 %ID in data set [9]; 0.04 %ID in data set [10]; 0.01 %ID in data set [11]; 0.83 %ID in data set [12]; 3.47 %ID in [13].

The values above are taken from ChEMBL document CHEMBL5230135, “Peptide Ligands Specifically Targeting HER2 Receptor and the Role Played by a Synthetic Model System of the Receptor Extracellular Domain: Hypothesized Future Perspectives” (J Med Chem, 2020).
